Data taken from patent EP0768085A1, “ANTIBACTERIAL AGENT” (DAIICHI PHARMACEUTICAL CO., LTD., priority 1994, dated 1996).
In brackets after ≈: the same amount, converted by molar mass. One block for each molecule: values may come before it.

Assays:
Assay type in all cases: cell-based
[1] = test system: Staphylococcus aureus TI-1; test: Antibacterial activity (IC), broth microplate as in Example 4 (Example 5, Table 40); conditions: TI1, 18 h
Procedure: (§1) A suitable amount of a sample was dissolved in dimethylsulfoxide (DMSO), and the resultant solution was diluted with the same amount of sterilized distilled water to prepare a bulk sample of 1,000 µg/ml. Mueller-Hinton broth (product of DIFCO) was dispensed into each well of 96-well microplate. Thereafter, the bulk specimen was added to the first well of a row, and successively diluted (10-fold each time) with sterilized distilled water. Separately, a bacterial cell suspension for the test (Staphylococcus aureus 209-P) which had been cultured in the above-mentioned broth overnight at 37°C was inoculated to each well so that the final inoculation amount of 10^6 CFU/ml was attained. The final concentrations of the samples were 100, 10, and 1 µg/ml.
(§2) The antibacterial action was evaluated by the inhibitory concentration (hereinafter abbreviated as IC) at which propagation of the bacteria cultured at 37°C for 18 hours was inhibited. Inhibition was determined by the turbidity of the medium. The expressions "IC≤100", "≤10", and "≤1" indicate that MIC-equivalent values obtained at the succesive […] dilution of the sample are 100-10 µg/ml, 10-1 µg/ml, and not more than 1 µg/ml, respectively. […] (In the subsequent Examples, the same rule applies correspondingly.) Table 39
In a manner similar to that described in Example 4, antibacterial activity of the invention compound was determined. The bacterium used for the test was Staphylococcus aureus TI-1.

[2] = test system: Staphylococcus aureus 209-P; test: Antibacterial activity (IC), Mueller-Hinton broth, 96-well microplate (Example 4, Table 39); conditions: 37°C, 18 hours
Procedure: as §1, §2

[3] = test system: Pasteurella multocida (Kobe-6); test: Antibacterial activity (IC), broth microplate as in Example 4 (Example 6, Table 41); conditions: 18 h, origin pig
Procedure: as §1, §2
In a manner similar to that described in Example 4, antibacterial activity of the invention compound was determined. The bacterium used for the test was Pasteurella Kobe-6 (origin: pig; Pasteurella multocida).

[4] = test system: Bordetella bronchiseptica (SM2-4); test: Antibacterial activity (IC), broth microplate as in Example 4 (Example 7, Table 42); conditions: 18 h
Procedure: as §1, §2
In a manner similar to that described in Example 4, antibacterial activity of the invention compound was determined. The bacterium used for the test was Bordetella bronchiseptica (SM2-4).

[5] = test system: Staphylococcus aureus (209-P); test: Antibacterial activity (IC), agar as in Example 8 (Example 15, Table 48); conditions: 18 h
Procedure: as §2
(§3) A suitable amount of a sample was dissolved in dimethylsulfoxide (DMSO), after which the resulting solution was diluted with the same amount of sterilized distilled water to prepare a bulk sample of 1,000 µg/ml. Separately, a bacterial liquid for the test (methicillin-resistant Staphylococcus aureus (MRSA) isolated from humans) which had been cultured in Mueller-Hinton broth (product of DIFCO) was prepared and inoculated to a Mueller-Hinton agar (product of DIFCO) containing the sample so that the final inoculation amount of 10^6 CFU/ml was achieved. The final concentrations of the samples were 100, 10, and 1 µg/ml.
(§4) After culturing at 37°C for 18 hours, the antibacterial activity was evaluated in terms of IC in a manner similar to that described in Example 4.
The bacterium used for the test was Staphylococcus aureus (209-P).

Enterococcus from fish = test: Antibacterial activity (IC), agar as in Example 8, media with 1.5% NaCl, 25°C (Example 20, Tables 53-55)
Procedure: as §2, §3, §4
(§5) In a manner similar to that described in Example 8, antibacterial activity of a variety of ketonitrile derivatives shown in Tables 53-55 was measured. The bacteria used for the test were Enterococcus and Pasteurella from fish. The culture conditions were such that the media contained 1.5% NaCl, and the culture temperature was 25°C.

Pasteurella from fish = test: as above
Procedure: as §2, §3, §4, §5

[6] = test system: methicillin-resistant Staphylococcus aureus (MRSA) from humans; test: Antibacterial activity (IC), agar as in Example 8 (Example 19, Table 52); conditions: 18 h
Procedure: as §2, §3, §4
In a manner similar to that described in Example 8, antibacterial activity of a variety of ketonitrile derivatives shown in Table 52 was measured. The bacterium used for the test was methicillin-resistant Staphylococcus aureus (MRSA) from humans.

[7] = test system: Pasteurella multocida (Kobe-6); test: Antibacterial activity (IC), agar as in Example 8 (Example 17, Table 50); conditions: 18 h, origin pig
Procedure: as §2, §3, §4
In a manner similar to that described in Example 8, antibacterial activity of the invention compound was determined. The bacterium used for the test was Pasteurella Kobe-6 (origin: pig, Pasteurella multocida).

[8] = test system: Streptococcus aureus (TI-1); test: Antibacterial activity (IC), agar as in Example 8 (Example 16, Table 49); conditions: 18 h
Procedure: as §2, §3, §4
In a manner similar to that described in Example 8, antibacterial activity of the invention compound was determined. The bacterium used for the test was […] aureus (TI-1).

Structure (SMILES): CC(Oc1ccc(Oc2ncc(C(F)(F)F)cc2Cl)cc1)C(=O)C(C#N)c1ccc(Cl)cc1Cl (centres unmarked) [Compound No. 2, 4-[4-(3-chloro-5-trifluoromethyl-2-pyridyloxy)phenoxy]-2-(2,4-dichlorophenyl)-3-oxopentanonitrile]
MIC [1]: 1 to 10 µg/mL (≈ 1.89 to 18.9 µM)
MIC [4]: 10 to 100 µg/mL (≈ 18.9 to 189 µM)
MIC [2]: 10 to 100 µg/mL (≈ 18.9 to 189 µM)
MIC [3]: 10 to 100 µg/mL (≈ 18.9 to 189 µM)

Structure (SMILES): CCC(Oc1ccc(Oc2ncc(C(F)(F)F)cc2Cl)cc1)C(=O)C(C#N)c1ccc(Cl)cc1Cl (centres unmarked) [Compound No. 15]
MIC [1]: 1 to 10 µg/mL (≈ 1.84 to 18.4 µM)
MIC [2]: 1 to 10 µg/mL (≈ 1.84 to 18.4 µM)
MIC [3]: 10 to 100 µg/mL (≈ 18.4 to 184 µM)

Structure (SMILES): CC(Oc1cccc(Oc2ccc(Br)cc2F)c1)C(=O)C(C#N)c1cccc(Br)c1 (centres unmarked) [Compound No. 111, 4-[3-(4-bromo-2-fluorophenoxy)phenoxy]-2-(3-bromophenyl)-3-oxopentanonitrile]
MIC [5]: 1 to 10 µg/mL (≈ 1.88 to 18.8 µM)
IC (Enterococcus from fish; Enterococcus Seriolicida HI): ≤10 (10-1 µg/ml)
IC (Enterococcus from fish; Enterococcus Seriolicida KG86050): ≤10 (10-1 µg/ml)
IC (Enterococcus from fish; Enterococcus Seriolicida MS89060): ≤10 (10-1 µg/ml)
IC (Enterococcus from fish; Enterococcus Seriolicida MS89064): ≤10 (10-1 µg/ml)
IC (Enterococcus from fish; Enterococcus Seriolicida MS89066): ≤10 (10-1 µg/ml)
IC (Enterococcus from fish; Enterococcus Seriolicida MS89068): ≤10 (10-1 µg/ml)
IC (Enterococcus from fish; Enterococcus Seriolicida SE94-001): ≤10 (10-1 µg/ml)
MIC (Enterococcus from fish; Enterococcus Seriolicida SE94-002): 1 to 10 µg/mL (≈ 1.88 to 18.8 µM)
IC (Enterococcus from fish; Enterococcus Seriolicida SE94-003): ≤10 (10-1 µg/ml)
IC (Enterococcus from fish; Enterococcus Seriolicida SE94-004): ≤10 (10-1 µg/ml)
IC (Enterococcus from fish; Enterococcus Seriolicida SE94-005): ≤10 (10-1 µg/ml)
MIC (Pasteurella from fish; Pasteurella piscicida KP94-02): 10 to 100 µg/mL (≈ 18.8 to 188 µM)
IC (Pasteurella from fish; Pasteurella piscicida KP94-04): ≤100 (MIC-equivalent values obtained at the succesive 2-fold dilution of the sample are 100-10 µg/ml)
IC (Pasteurella from fish; Pasteurella piscicida KP94-05): ≤100 (MIC-equivalent values obtained at the succesive 2-fold dilution of the sample are 100-10 µg/ml)
IC (Pasteurella from fish; Pasteurella piscicida KP94-06): ≤100 (MIC-equivalent values obtained at the succesive 2-fold dilution of the sample are 100-10 µg/ml)
MIC ([6]; MRSA strain 891179): 1 to 10 µg/mL (≈ 1.88 to 18.8 µM)
MIC ([6]; MRSA strain 891185): 1 to 10 µg/mL (≈ 1.88 to 18.8 µM)
MIC ([6]; MRSA strain 891187): 1 to 10 µg/mL (≈ 1.88 to 18.8 µM)
MIC ([6]; MRSA strain 891192): 1 to 10 µg/mL (≈ 1.88 to 18.8 µM)
MIC ([6]; MRSA strain 900048): 1 to 10 µg/mL (≈ 1.88 to 18.8 µM)
MIC ([6]; MRSA strain 900056): 1 to 10 µg/mL (≈ 1.88 to 18.8 µM)
MIC [7]: 10 to 100 µg/mL (≈ 18.8 to 188 µM)
MIC [8]: 1 to 10 µg/mL (≈ 1.88 to 18.8 µM)

Structure (SMILES): N#CC(C(=O)COc1ccc(Oc2ncc(C(F)(F)F)cc2Cl)cc1)c1ccc(Cl)cc1Cl (centres unmarked) [compound 9]
MIC [4]: 10 to 100 µg/mL (≈ 19.4 to 194 µM)

Next, values leading:

MIC [1]: 1 to 10 µg/mL (≈ 2.02 to 20.2 µM)
MIC [2]: 1 to 10 µg/mL (≈ 2.02 to 20.2 µM)
MIC [3]: 10 to 100 µg/mL (≈ 20.2 to 202 µM)
Structure (SMILES): CC(Oc1ccc(Oc2ccc(C(F)(F)F)cn2)cc1)C(=O)C(C#N)c1ccc(Cl)cc1Cl (centres unmarked) [Compound No. 1]

MIC [1]: 1 to 10 µg/mL (≈ 2.02 to 20.2 µM)
MIC [2]: 1 to 10 µg/mL (≈ 2.02 to 20.2 µM)
MIC [3]: 10 to 100 µg/mL (≈ 20.2 to 202 µM)
Structure (SMILES): CC(Oc1ccc(Oc2ncc(C(F)(F)F)cc2Cl)cc1)C(=O)C(C#N)c1cccc(Cl)c1 (centres unmarked) [Compound No. 10]

MIC [1]: 10 to 100 µg/mL (≈ 19.6 to 196 µM)
MIC [4]: 10 to 100 µg/mL (≈ 19.6 to 196 µM)
MIC [2]: 10 to 100 µg/mL (≈ 19.6 to 196 µM)
Structure (SMILES): CC(Oc1ccc(Oc2ncc(C(F)(F)F)cc2Cl)cc1)C(=O)C(C#N)c1cccc2ccccc12 (centres unmarked) [compound 14]
